In patent US9657002B2, “Oxindole derivatives carrying an oxetane substituent and use thereof for treating vassopressin-related diseases” (AbbVie Deutschland GmbH & Co. KG, priority 2013, dated 2017):
Read-outs that look alike come from different tables or passages of the source.

How the values were obtained:
[1] = tested on: Sprague Dawley rats; experiment: Forced swim test; format: in vivo; details: i.p. 24, 4 and 0.5 hours before testing, at 10 mg/kg
Text: (§1) Male NMRI mice (Janvier, Le Genest-St-Isle, France) were used for stress-induced Adrenocorticotropic hormone (ACTH) release. Adult male Wistar rats (175-220 g body weight upon arrival) were obtained from Harlan Inc. (Indianapolis, Ind.). For the forced swim test, male Sprague Dawley rats (100-120 g body weight upon arrival) were obtained from Janvier (Le Genest-St-Isle, France). The animals were acclimatized to the animal facilities for at least one week before the start of the experimental procedures. Animals were maintained in a controlled environment on a 12:12 hour light dark schedule (lights on 06:00 h for rats in Vogel conflict test and 05:30 h for rats in forced swim test). Experimental procedures took place during the illuminated phase of the light/dark cycle. Food and water were available ad libitum, except for the Vogel conflict test, where the animals were submitted to a water deprivation regimen as described below. […]
The forced swim test consisted of a pre-test and a test swim. […] Test swims were recorded on videotape and subsequently used for analysis. […]

[2] = biological target: human vasopressin V1a receptor (Homo sapiens, UniProt P37288); experiment: Vasopressin V1a receptor binding assay; details: selectivity quotient, human V1a vs human V1b
Sequence of human vasopressin V1a receptor (P37288 whole entry): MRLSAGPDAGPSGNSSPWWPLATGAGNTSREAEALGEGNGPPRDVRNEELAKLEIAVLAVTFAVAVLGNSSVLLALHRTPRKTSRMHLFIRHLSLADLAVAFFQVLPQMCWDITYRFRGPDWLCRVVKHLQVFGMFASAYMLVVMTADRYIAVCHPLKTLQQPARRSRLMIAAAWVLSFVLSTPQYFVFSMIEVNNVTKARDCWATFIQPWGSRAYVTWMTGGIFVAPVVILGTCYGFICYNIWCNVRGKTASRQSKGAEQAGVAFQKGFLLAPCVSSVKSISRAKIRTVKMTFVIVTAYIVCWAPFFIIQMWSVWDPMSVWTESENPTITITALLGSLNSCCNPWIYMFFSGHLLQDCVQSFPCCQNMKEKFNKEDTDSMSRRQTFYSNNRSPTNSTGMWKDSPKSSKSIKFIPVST

[3] = biological target: T1, human vasopressin V1b receptor (Homo sapiens, UniProt P47901); experiment: biochemical
T1 sequence (P47901 1-424): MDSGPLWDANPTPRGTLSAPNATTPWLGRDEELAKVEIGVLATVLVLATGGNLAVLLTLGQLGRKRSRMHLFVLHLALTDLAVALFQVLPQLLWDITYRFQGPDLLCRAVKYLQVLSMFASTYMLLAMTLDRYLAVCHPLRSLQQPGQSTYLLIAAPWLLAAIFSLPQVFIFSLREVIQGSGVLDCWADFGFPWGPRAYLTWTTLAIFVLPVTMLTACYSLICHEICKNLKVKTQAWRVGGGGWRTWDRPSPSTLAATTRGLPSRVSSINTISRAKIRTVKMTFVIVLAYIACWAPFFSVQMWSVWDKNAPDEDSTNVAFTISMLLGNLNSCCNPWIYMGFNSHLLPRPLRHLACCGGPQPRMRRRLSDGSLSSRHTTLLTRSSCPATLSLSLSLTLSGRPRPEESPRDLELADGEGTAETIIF

[4] = tested on: stress-induced ACTH release; experiment: Stress-induced ACTH release; format: in vivo, NMRI mice; details: mice, restraint stress, i.p. 1 hour before; at 10 and 30 mg/kg
Text: as §1
The blood was collected in 1.3 mL blood sampling vials containing potassium EDTA (Sarstedt, Nümbrecht, Germany) and […] aprotinin solution (saline solution, 3-7 TIU [trypsin inhibitor units]/mg protein; Sigma-Aldrich, Germany). […] ACTH concentrations were measured by an ELISA (enzyme-linked immuno sorbent assay) for ACTH (IBL Hamburg, Germany). […]

[5] = tested on: Wistar rats; experiment: Vogel conflict test; format: in vivo; details: i.p. 30 minutes before the test, at 10 and 30 mg/kg
Text: as §1
The Vogel conflict test is a well-validated animal model to detect compounds with anxiolytic properties. […] The number of punished responses was automatically recorded for each rat during 5 min of testing. […]

[6] = biological target: T1, human vasopressin V1b receptor; details: read-out: Ki(h-V1b)*, CHO-K1 membranes, 3H-AVP displacement

Ki [3] [nM] | Compound | latency to immobility in the forced swim test (antidepressant-like effect) [1] | Ki(h-V1a)/Ki(h-V1b) [2] | stress-induced ACTH release [4] | punished responses in Vogel conflict (anxiolytic-like efficacy) [5] | Ki [6] [nM]
10 to 100 | COc1ccc(S(=O)(=O)N2C(=O)[C@@](NC(=O)N3CCN(C4CCN(C5COC5)CC4)CC3)(c3cccnc3OC)c3cc(C#N)ccc32)c(OC)c1 [Example 21, N-[(3S)-5-cyano-1-(2,4-dimethoxyphenyl)sulfonyl-3-(2-methoxy-3-pyridyl)-2-oxo-indolin-3-yl]-4-[1-(oxetan-3-yl)-4-piperidyl]piperazine-1-carboxamide] | significant antidepressant-like effect | +++ (>75) | significantly blocked the stress response | significant effect | –
– | (S)—N-(5-cyano-1-((2,4-dimethoxyphenyl)sulfonyl)-3-(2-ethoxypyridin-3-yl)-2-oxoindolin-3-yl)-4-(4-(oxetan-3-yl)piperazin-1-yl)piperidine-1-carboxamide [Example 2] | – | ++ (25-75) | – | – | 1 to 10
